For test [1], the system named is Alternaria solani. As to the kind of experiment: Alternaria solani (early blight of tomato), tomato leaf disks, preventive. It counts as in vivo. The conditions noted are these: foliar, 96 h, assessed 4 dpi, vs untreated control. As for the experimental part:
Tomato leaf disks are placed on water agar in multiwell plates (24-well format) and sprayed with test solutions. After drying, the leaf disks are inoculated with a spore suspension of the fungus. After appropriate incubation the activity of a compound is assessed 4 dpi (days post inoculation) as preventive fungicidal activity.

Test [2] concerns Botryotinia fuckeliana syn. Botrytis cinerea. As to the kind of experiment: Botryotinia fuckeliana syn. Botrytis cinerea (gray mould), liquid culture growth inhibition. Type of test: cell-based. Particulars: PDB nutrient broth, 24° C., 72 hrs, photometric, vs untreated control. As for the experimental part:
Conidia of the fungus from cryogenic storage were directly mixed into nutrient broth (PDB potato dextrose broth). A DMSO solution of the test compounds was placed into a microtiter plate (96-well format) and the nutrient broth containing the fungal spores was added to it. The test plates were incubated at 24° C. and the inhibition of growth was determined photometrically after 72 hrs.

The subject of test [3] is Pyrenophora teres. As to the kind of experiment: Pyrenophora teres (net blotch of barley), barley leaf segments, preventive. Particulars: foliar, 96 h, assessed 4 dpi, vs untreated control. Type of test: in vivo. As to the method: Barley leaf segments are placed on agar in multiwell plates (24-well format) and sprayed with test solutions. After drying, the leaf disks are inoculated with a spore suspension of the fungus. After appropriate incubation, the activity of a compound is assessed 4 dpi (days after inoculation) as preventive fungicidal activity.

Test [4] relates to Phaeosphaeria nodorum syn. Septoria nodorum. As to the kind of experiment: Phaeosphaeria nodorum syn. Septoria nodorum (glume blotch of wheat), wheat leaf segments, preventive. Type of test: in vivo. The conditions noted are these: Parastagonospora nodorum, foliar, 96 h, assessed 4 dpi, vs untreated control. As for the experimental part: Wheat leaf segments are placed on agar in multiwell plates (24-well format) and sprayed with test solutions. After drying, the leaf disks are inoculated with a spore suspension of the fungus. After appropriate incubation the activity of a compound is assessed 4 dpi (days after inoculation) as preventive fungicidal activity.
The following compounds from Table T1 gave at least 80% control of Phaeosphaeria nodorum at 200 ppm when compared to untreated control under the same conditions, which sowed extensive disease development: • 1.1, 1.3, 1.7, 1.14, 1.39, 1.41, 1.86, 1.87, 1.92, 1.94, 1.95.

For test [5], the system named is Botryotinia fuckeliana syn. Botrytis cinerea. In words: Botryotinia fuckeliana syn. Botrytis cinerea (grey mold on tomato), tomato plants. It counts as in vivo. Particulars: tomato plants cv. Roter Gnom, inoculated two days after application, leaf area covered by disease 5-6 days after application. Summed up: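 Tomato plants (cv. Roter Gnom, 4 weeks old) sprayed with formulated compound diluted in water, then spray-inoculated with spore suspension 2 days later. Incubated at 20° C and 95% rh in greenhouse; % leaf area diseased assessed 5-6 days after application, when untreated checks show adequate disease.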

Test [6] has as its system Sclerotinia sclerotiorum. As to the kind of experiment: Sclerotinia sclerotiorum (cottony rot, white mold), liquid culture growth inhibition. It counts as cell-based. The conditions noted are these: PDB nutrient broth, 24° C., 72 hrs, 620 nm, vs untreated control. As to the method:
Mycelial fragments of the fungus prepared from a fresh liquid culture were directly mixed into nutrient broth (PDB potato dextrose broth). A DMSO solution of the test compounds was placed into a microtiter plate (96-well format) and the nutrient broth containing the fungal spores was added to it. The test plates were incubated at 24° C. and the inhibition of growth was determined photometrically after 72 hrs at 620 nm.

For test [7], the system named is Glomerella lagenarium syn Colletotrichum lagenarium. As to the kind of experiment: Glomerella lagenarium syn. Colletotrichum lagenarium (anthracnose), liquid culture growth inhibition. Type of test: cell-based. The conditions noted are these: Colletotrichum orbiculare, PDB nutrient broth, 24° C., 72 hrs, 620 nm, vs untreated control. As to the method:
(§1) Conidia of the fungus from cryogenic storage were directly mixed into nutrient broth (PDB potato dextrose broth). A DMSO solution of the test compounds was placed into a microtiter plate (96-well format) and the nutrient broth containing the fungal spores was added to it. The test plates were incubated at 24° C. and the inhibition of growth was determined photometrically after 72 hrs at 620 nm.

Test [8] has as its system Monographella nivalis syn. Microdochium nivale, Fusarium nivale. In words: Monographella nivalis syn. Microdochium nivale (snow mould, foot rot), liquid culture growth inhibition. The conditions noted are these: PDB nutrient broth, 24° C., 72 hrs, 620 nm, vs untreated control. Type of test: cell-based. As for the experimental part:
as §1

The pest or weed control is the degree to which the test organism was suppressed or injured, in per cent. High values mean a strong effect, low ones a weak effect. One may read the inhibition of growth as the change of the read-out against control, counted positive when it falls. A higher inhibition of growth goes with a response far below the control. For the compound `Cc1cc(C(=O)NCC(F)c2ccc(Cl)cc2Cl)c(Oc2cccc(C3CC3)c2)cn1` (centres unmarked) [Compound 1.14, 5-(3-cyclopropyl-phenoxy)-N-[2-(2,4-dichlorophenyl)-2-fluoro-ethyl]-2-methyl-pyridine-4-carboxamide], the pest or weed control at 200 ppm in test [1] was at least 80%; in test [3] it was at least 80%; in test [4], at least 80%; in test [5], at least 50%. The inhibition of growth at 20 ppm in test [2], in test [6], in test [7] and in test [8] was at least 80% each time.

With `Cc1ccc(C(F)CNC(=O)c2cc(C)ncc2Oc2cccc(C3CC3)c2)c(C)c1` (centres unmarked) [Compound 1.39, 5-(3-cyclopropyl-phenoxy)-N-[2-(2,4-dimethylphenyl)-2-fluoro-ethyl]-2-methyl-pyridine-4-carboxamide], the pest or weed control at 200 ppm was at least 80% in test [1], at least 80% in test [3], at least 80% in test [4] and at least 50% in test [5]. The inhibition of growth at 20 ppm in test [2], in test [6], in test [7] and in test [8] was at least 80% each time.

As to `Cc1cc(C(=O)NC[C@@H](F)c2ccc(Cl)cc2Cl)c(Oc2cccc(C3CC3)c2)cn1` [Compound 1.41, 5-(3-cyclopropyl-phenoxy)-N-[(2S)-2-(2,4-dichlorophenyl)-2-fluoro-ethyl]-2-methyl-pyridine-4-carboxamide], the pest or weed control at 200 ppm in test [1] is at least 80%; in test [3], at least 80%; in test [4], at least 80%; in test [5], at least 50%. Moreover, the inhibition of growth at 20 ppm in test [2], in test [6], in test [7] and in test [8] was at least 80% throughout.

In the case of `C#Cc1cncc(Oc2cccc(C3CC3)c2)c1C(=O)NCC(F)c1ccc(Cl)cc1Cl` (centres unmarked) [Compound 1.87, 3-(3-cyclopropyl-phenoxy)-N-[2-(2,4-dichlorophenyl)-2-fluoro-ethyl]-5-ethynyl-pyridine-4-carboxamide], the pest or weed control at 200 ppm in test [1] was at least 80%; in test [3], at least 80%; in test [4], at least 80%; in test [5] it was at least 50%. For the same compound, the inhibition of growth at 20 ppm in test [2], in test [6], in test [7] and in test [8] was at least 80% in each case.

The values are drawn from patent publication US20240182420A1, “MICROBIOCIDAL ISONICOTINIC AMIDE DERIVATIVES” (SYNGENTA CROP PROTECTION AG, priority 2021, published 2024).
